According to PubChem BioAssay AID588600 (Sanford-Burnham Center for Chemical Genomics, 2011):

Target: Sentrin-specific protease 7 (Homo sapiens) (UniProt Q9BQF6)
Assay: SENP7 protease inhibitors, SAR follow-up, biochemical, luminescence, set 2 (AID 588600)
Conditions: recombinant SENP7, Z-RLRGG-aminoluciferin, 40 min

Sequence of Sentrin-specific protease 7 (Homo sapiens) (Q9BQF6 706-1050 limits assumed): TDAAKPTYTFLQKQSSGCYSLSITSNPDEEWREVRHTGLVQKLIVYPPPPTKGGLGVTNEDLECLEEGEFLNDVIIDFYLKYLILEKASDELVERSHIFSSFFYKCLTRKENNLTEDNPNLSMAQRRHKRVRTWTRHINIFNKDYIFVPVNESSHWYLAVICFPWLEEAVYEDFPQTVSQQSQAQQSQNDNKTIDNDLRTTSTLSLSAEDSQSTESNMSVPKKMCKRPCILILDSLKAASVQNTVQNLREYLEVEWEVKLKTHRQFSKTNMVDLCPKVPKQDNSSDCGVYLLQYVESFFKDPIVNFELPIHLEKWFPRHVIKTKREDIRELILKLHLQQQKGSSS

| Structure (SMILES) | IC50 [nM] |
| --- | --- |
| COc1ccccc1OCc1nc(-c2ccccc2Cl)no1 | 2080 |
| CN(C)c1ccc(/C=C/c2noc(-c3ccccc3O)n2)cc1 | 1650 |
